Experimental data: patent publication US9693971B2, “Compositions for alleviating gastrointestinal tract disorders or associated systemic disorders in ruminants and camelids” (FREIE UNIVERSITÄT BERLIN, priority 2012, dated 2017)
“Also recorded” adds a separate entry of the source. Like-named read-outs stand apart in the source and are kept apart here.

Columns and labels:
[1] = target: TRPA1 (Homo sapiens, UniProt O75762); details: cited from earlier work
[2] = target: TRPV1 (Homo sapiens, UniProt Q8NER1); details: cited from earlier work
Chain of TRPV1 (Q8NER1 whole entry, species assumed): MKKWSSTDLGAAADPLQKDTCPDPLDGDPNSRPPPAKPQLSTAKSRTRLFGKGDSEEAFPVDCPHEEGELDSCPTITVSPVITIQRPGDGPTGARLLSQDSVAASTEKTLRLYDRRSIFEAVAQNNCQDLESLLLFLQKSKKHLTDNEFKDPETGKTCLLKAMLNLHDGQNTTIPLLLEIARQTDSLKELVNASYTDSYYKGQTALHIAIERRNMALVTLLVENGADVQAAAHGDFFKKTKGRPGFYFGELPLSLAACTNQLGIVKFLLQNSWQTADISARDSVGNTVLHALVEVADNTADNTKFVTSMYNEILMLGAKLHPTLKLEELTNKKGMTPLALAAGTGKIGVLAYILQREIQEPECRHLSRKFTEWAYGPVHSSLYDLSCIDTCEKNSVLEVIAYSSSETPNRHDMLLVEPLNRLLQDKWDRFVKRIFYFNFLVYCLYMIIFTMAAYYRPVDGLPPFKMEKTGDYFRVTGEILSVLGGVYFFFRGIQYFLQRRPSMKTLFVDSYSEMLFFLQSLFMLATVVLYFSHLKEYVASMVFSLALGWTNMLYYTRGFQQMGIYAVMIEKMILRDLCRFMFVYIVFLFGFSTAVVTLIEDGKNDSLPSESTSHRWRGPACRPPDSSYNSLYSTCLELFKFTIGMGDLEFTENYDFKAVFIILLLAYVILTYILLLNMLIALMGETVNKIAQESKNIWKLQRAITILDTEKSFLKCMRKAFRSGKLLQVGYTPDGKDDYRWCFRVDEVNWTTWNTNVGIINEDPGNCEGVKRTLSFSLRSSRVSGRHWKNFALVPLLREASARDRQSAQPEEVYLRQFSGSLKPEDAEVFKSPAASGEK

[3] = target: T1, TRPV3 (Homo sapiens, UniProt Q8NET8); details: cited from earlier work
T1 sequence (Q8NET8 1-790): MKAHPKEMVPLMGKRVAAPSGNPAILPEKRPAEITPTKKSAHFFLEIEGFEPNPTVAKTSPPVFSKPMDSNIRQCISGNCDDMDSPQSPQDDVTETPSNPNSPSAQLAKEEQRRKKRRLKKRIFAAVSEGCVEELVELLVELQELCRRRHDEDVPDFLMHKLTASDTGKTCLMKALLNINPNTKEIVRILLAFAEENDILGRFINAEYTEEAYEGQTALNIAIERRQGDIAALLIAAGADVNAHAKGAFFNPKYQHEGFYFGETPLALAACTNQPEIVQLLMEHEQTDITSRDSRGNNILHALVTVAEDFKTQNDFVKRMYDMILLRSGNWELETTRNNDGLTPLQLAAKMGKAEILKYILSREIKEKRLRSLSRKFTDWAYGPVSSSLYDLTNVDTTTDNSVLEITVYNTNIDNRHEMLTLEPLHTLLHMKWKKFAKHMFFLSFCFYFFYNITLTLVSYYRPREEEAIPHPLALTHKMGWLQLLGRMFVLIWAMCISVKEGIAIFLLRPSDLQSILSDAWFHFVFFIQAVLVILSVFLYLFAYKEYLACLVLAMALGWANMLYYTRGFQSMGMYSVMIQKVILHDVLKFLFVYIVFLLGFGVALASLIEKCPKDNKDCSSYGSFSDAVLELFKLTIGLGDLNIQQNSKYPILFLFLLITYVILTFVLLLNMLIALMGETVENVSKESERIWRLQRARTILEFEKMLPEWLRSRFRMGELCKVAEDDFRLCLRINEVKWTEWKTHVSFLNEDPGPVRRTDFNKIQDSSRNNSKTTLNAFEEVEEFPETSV

[4] = target: TRPM8 (Homo sapiens, UniProt Q7Z2W7); details: cited from earlier work
Chain of TRPM8 (Q7Z2W7 whole entry, species assumed): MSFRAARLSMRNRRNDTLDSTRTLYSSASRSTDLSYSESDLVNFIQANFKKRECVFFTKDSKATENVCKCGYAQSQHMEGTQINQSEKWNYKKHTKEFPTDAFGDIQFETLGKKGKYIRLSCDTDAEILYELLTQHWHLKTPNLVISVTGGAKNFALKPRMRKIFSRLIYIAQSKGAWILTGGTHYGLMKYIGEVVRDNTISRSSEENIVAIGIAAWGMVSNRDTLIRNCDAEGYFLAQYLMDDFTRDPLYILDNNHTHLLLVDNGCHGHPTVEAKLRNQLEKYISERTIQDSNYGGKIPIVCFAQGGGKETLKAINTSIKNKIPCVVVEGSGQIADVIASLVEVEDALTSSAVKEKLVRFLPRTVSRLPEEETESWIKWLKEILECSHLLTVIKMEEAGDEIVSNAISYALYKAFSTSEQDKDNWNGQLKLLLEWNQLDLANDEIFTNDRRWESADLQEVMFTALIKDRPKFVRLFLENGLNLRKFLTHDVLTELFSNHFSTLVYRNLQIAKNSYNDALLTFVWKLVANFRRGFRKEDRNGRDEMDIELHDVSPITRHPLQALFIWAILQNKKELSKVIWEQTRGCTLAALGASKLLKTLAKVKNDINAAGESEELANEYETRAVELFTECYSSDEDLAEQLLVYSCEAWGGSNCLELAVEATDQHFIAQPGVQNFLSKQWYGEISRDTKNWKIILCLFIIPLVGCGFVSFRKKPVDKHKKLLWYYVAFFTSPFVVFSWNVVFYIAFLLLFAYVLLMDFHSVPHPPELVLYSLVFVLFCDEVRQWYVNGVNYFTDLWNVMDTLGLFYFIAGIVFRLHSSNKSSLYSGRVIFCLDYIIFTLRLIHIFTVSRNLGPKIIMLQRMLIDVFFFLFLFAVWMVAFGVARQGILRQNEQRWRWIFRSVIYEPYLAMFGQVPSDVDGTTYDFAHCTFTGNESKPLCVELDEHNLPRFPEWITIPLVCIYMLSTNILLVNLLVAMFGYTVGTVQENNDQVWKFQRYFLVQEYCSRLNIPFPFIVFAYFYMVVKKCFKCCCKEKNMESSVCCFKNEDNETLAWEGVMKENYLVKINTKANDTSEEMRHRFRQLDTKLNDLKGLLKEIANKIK

[5] = tested on: rumen epithelium from cattle; assay: Ussing chamber: ammonium-induced transepithelial short-circuit current (Isc) across isolated rumen epithelium; type: cell-based; details: for influence on ammonium-induced conductivity / transport across rumen epithelium (profile in words): no concentration stated
Description: The experiments on the intact epithelium take place as already specified (Abdoun, Stumpff et al. 2005; Abdoun, Stumpff et al. 2010). The measuring techniques used are a combination of the Ussing chamber technique developed by Ussing (1949) and the microelectrode technique.
When examining epithelial transport processes with the Ussing chamber, the epithelium is installed in a special chamber, which makes it possible to rinse the two sides of the epithelium (apical: food side; basolateral: blood side) separately of each other with buffer solutions of various composition, wherein the electrophysiological parameters (current and voltage) across the epithelium are traced. Hereby, it is made possible to differentiate between the transport of an uncharged substance (e.g. ammonia, NH3) and the transport of a charged substance (e.g. ammonium, NH4^+), as the former takes place without a change in current and voltage, whereas the latter is coupled with the transfer of a charge and thus changes the transepithelial electrical parameters.
With the help of a special modification, the reaction of individual epithelia to solution changes, taking place very rapidly and smoothly, is also examined over time. Hereby, for example, the reproducibility of a pharmacological intervention on the same piece of epithelium can very well be examined. This modification of the classic Ussing chamber technique is particularly, albeit not exclusively, used for the comparative “screening” of the various substances which are subject of an aspect of the present invention.
The epithelium is horizontally clamped into a modified Ussing chamber, wherein the mucosal side faces upwards. The chamber made of plexi-glass has a cross-section surface of 0.79 cm^2, which is corrected to 1 cm^2. As a protection against damages on the edges of the epithelium, “edge damage”, a silicone ring is in each case placed between chamber and epithelium. The two resulting chambers (mucosal and serosal) are each supplied by their own perfusion system (4-channel-stand-pump, Ismatec SA). With three-way valves, an independent solution change between altogether eight solutions is possible in the two chambers. During storage, the solutions are gassed in their containers with 100% O2. To warm the solutions up to 37° C., the thin perfusion tubes run through a heat exchanger pump. The suction device (Masterflex R/S, Cole Parmer Instrument Company) present in both chambers guarantees a rapid and safe change of solution. In order to ensure that there are no solution change artefacts when adding agonists and antagonists, the substances are pipetted into the respective solution, wherein the gassing ensures a rapid mixing. In this way, pressure fluctuations or an interruption of the flow through the chamber can be safely precluded.
As in the conventional Ussing chamber technique, there are in each case two electrodes near the tissue and two electrodes distant from the tissue for measuring the transepithelial potential difference and the transepithelial current (Isc). The connections between the Ag/AgCl electrodes, which are filled with 3 M KCl, are established via agar bridges. Just as in Strecker (Strecker 2011), the measuring chamber is connected to a “voltage clamp” installation (Ussing chamber unit) in assembly with a microelectrode amplifier (both Biomedical Instruments Co., Germering). A micromanipulator (MF 500) installed above the measuring chamber offers the possibility to move the microelectrode in fine μm steps. Additionally, a microscope as well as a cold-light source are located above the apparatus.
Menthol (Sigma-Aldrich) was dissolved at a concentration of 1 mol·l^−1 in ethanol and pipetted into the used test solution containing ammonium. For an end concentration of 1 mmol·l^−1, 20 μl of this stock solution was added to 20 ml test solution; for 200 μmol·l^−1 correspondingly less. In control experiments, corresponding amounts of pure ethanol were added to the test solution.

Chain of TRPA1 (O75762 whole entry, species assumed): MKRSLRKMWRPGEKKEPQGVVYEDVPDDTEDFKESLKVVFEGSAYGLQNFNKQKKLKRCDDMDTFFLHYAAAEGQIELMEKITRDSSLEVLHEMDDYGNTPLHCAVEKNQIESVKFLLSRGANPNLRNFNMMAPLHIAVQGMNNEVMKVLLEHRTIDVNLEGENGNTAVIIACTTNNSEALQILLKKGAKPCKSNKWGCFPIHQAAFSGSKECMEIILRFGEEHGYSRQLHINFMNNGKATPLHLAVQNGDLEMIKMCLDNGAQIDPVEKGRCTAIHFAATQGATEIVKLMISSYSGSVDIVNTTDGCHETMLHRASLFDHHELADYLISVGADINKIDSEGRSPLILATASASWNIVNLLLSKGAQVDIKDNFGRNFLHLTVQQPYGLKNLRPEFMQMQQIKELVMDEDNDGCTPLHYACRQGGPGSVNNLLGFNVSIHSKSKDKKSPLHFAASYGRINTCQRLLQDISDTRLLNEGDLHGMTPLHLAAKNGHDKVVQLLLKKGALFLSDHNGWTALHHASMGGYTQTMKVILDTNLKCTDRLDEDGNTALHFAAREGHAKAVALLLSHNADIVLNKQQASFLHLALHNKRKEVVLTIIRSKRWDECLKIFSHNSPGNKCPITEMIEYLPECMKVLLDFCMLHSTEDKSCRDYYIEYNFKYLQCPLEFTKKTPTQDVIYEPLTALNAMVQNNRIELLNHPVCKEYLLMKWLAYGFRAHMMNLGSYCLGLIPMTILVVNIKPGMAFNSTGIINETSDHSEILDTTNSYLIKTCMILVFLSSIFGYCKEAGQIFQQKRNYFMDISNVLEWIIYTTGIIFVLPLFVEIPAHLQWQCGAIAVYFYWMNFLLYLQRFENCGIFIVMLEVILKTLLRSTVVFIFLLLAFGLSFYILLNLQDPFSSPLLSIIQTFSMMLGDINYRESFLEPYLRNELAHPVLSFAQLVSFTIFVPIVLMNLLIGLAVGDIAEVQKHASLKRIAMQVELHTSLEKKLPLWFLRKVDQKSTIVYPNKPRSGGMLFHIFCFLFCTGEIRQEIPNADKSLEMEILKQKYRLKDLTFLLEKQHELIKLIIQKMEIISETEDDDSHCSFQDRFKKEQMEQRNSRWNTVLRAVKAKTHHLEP

Row | Compound | Effect on TRPA1 [1] | Effect on TRPV1 [2] | Effect on TRPM8 [4] | further results
1 | C=CCS[S+]([O-])CC=C (stereo not drawn) [Allicin, allicin] | Agonist |  |  | 
2 | C=CCN=C=S [Allyl isothiocyanate, allyl isothiocyanate] | Agonist |  |  | 
3 | S=C=NCc1ccccc1 [Benzyl isothiocyanate, benzyl isothiocyanate] | Agonist |  |  | 
4 | CC12CCC(CC1=O)C2(C)C (stereo not drawn) [Camphor, camphor] | Antagonist | Agonist |  | Effect on TRPV3 [3]: nonspecific
5 | C=C(C)[C@@H]1CCC(C)=C[C@H]1c1c(O)cc(CCCCC)cc1O [Cannabidiol, cannabidiol] |  | Agonist |  | 
6 | Oc1cc2c(cc1O)CN(C(=S)NCCc1ccc(Cl)cc1)CCC2 [Capsazepine, capsazepine] |  | Antagonist |  | 
7 | Cc1ccc(C(C)C)cc1O [Carvacrol, carvacrol] | Agonist |  |  | Effect on TRPV3 [3]: Agonist; Effect on TRPA1 ([1]; listed as carvacrol): potent TRPA1 agonists
8 | CC1CCC(C(C)(C)O)C(O)C1 (stereo not drawn) [Cis- and trans-p-menthane-3,8-diol, p-menthane-3,8-diol] |  |  | Agonist | 
9 | CCO [Ethanol] |  |  | Antagonist | 
10 | CC12CCC(CC1)C(C)(C)O2 [Eucalyptol, eucalyptol] |  |  | Agonist | Effect on TRPM8 ([4]; listed as eucalyptol): potent TRPM8 agonist
11 | C=CCc1ccc(O)c(OC)c1 [Eugenol, eugenol] | Agonist | Agonist | Agonist | Effect on TRPV3 [3]: nonspecific; Effect on TRPA1 ([1]; listed as eugenol): potent TRPA1 agonists
12 | CC(C)=CCC/C(C)=C/CO [Geraniol, geraniol] |  |  | Agonist | Effect on TRPM8 ([4]; listed as geraniol): potent TRPM8 agonist
13 | CC(CC=O)CCCC(C)(C)O (stereo not drawn) [Hydroxyl-citronellal, hydroxyl-citronellal] |  |  | Agonist | 
14 | O=C1NC(c2cccc([N+](=O)[O-])c2)=CCN1c1ccccc1O [Icilin, icilin] |  |  | Agonist | 
15 | CC(C)N=C=S [Isopropyl isothiocyanate, isopropyl isothiocyanate] | Agonist |  |  | 
16 | C=C(C)[C@@H]1CC[C@@H](C)C[C@H]1O [Isopulegol, isopulegol] |  |  | Agonist | 
17 | CC1(C)C[C@H]2C=C(C=O)[C@]3(C=O)C[C@]3(C)[C@H]2C1 [Isovelleral, isovelleral] |  | Agonist |  | 

Row | Compound | Effect on TRPA1 [1] | Effect on TRPV1 [2] | Effect on TRPM8 [4] | further results
18 | C=C(C)[C@@H]1CC=C(C)C(=O)C1 [L-carvone, 1-carvone] |  |  | Agonist | 
19 | C=CC(C)(O)CCC=C(C)C (stereo not drawn) [Linalool, linalool] |  |  | Agonist | 
20 | CC(C)[C@@H]1CC[C@@H](C)CC1=O [Menthone, menthone] |  |  | Agonist | Effect on TRPM8 ([4]; listed as menthone): potent TRPM8 agonist
21 | CC1CCC(C(C)C)C(OC(=O)C(C)O)C1 (stereo not drawn) [Menthyl lactate, menthyl lactate] |  |  | Agonist | 
22 | CN=C=S [Methyl isothiocyanate, methyl isothiocyanate] | Agonist |  |  | 
23 | N [NH4^+, ammonium] |  |  |  | transepithelial current, MV ([5]; 40 mM NH4^+ replacing NMDG+, n=37, NaCl before −2.43, after washout −2.68): −25.73 μA · cm^−2; transepithelial current, Median ([5]; 40 mM NH4^+ replacing NMDG+, n=37, NaCl median −3.60): −22.32 μA · cm^−2
24 | CCCCCCCC/C=C\CCCCCCCC(=O)NCc1ccc(O)c(OC)c1 [Olvanil, olvanil] |  | Agonist |  | 
25 | S=C=NCCc1ccccc1 [Phenylethyl isothiocyanate, phenylethyl isothiocyanate] | Agonist |  |  | 
26 | CC1(C)CCC[C@]2(C)[C@@H](C=O)C(C=O)=CC[C@@H]12 [Polygodial, polygodial] |  | Agonist |  | 
27 | C=C(C)[C@]12C[C@@H](C)[C@@]34O[C@](Cc5ccccc5)(O[C@@H]1[C@@H]3C=C(COC(=O)Cc1ccc(O)c(OC)c1)C[C@]1(O)C(=O)C(C)=C[C@@H]41)O2 [Resiniferatoxin, resiniferatoxin] |  | Agonist |  | 
28 | C/C=C(/C)C(=O)O[C@H]1C(C)=C2[C@H]([C@@H]1OC(=O)CCCCCCC)[C@@](C)(OC(C)=O)C[C@H](OC(=O)CCC)[C@@]1(O)[C@H]2OC(=O)[C@@]1(C)O [Thapsigargin, thapsigargin] |  | Antagonist |  | 
29 | COc1cc(CCC(C)=O)ccc1O [Vanillylacetone, vanillylacetone] |  | Agonist |  | 
30 | COc1cc(CNC(=O)CCCC/C=C/C(C)C)ccc1O [capsaicin] |  | Agonist |  | influence on ammonium-induced conductivity / transport across rumen epithelium (profile in words) [5]: significantly influenced
31 | O=CC=Cc1ccccc1 [cinnamaldehyde] | potent TRPA1 agonists; also recorded: Agonist |  | Antagonist | transepithelial current, MV ([5]; cinnamaldehyde (concentration not given) in 40 mM NH4^+, n=7, before −31.53, p = 0.313): −28.39 μA · cm^−2; transepithelial current, Median ([5]; cinnamaldehyde in 40 mM NH4^+, n=7, before −26.52): −24.03 μA · cm^−2; influence on ammonium-induced conductivity / transport across rumen epithelium (profile in words) [5]: inhibiting profile
32 | COC(=O)c1ccccc1O [methyl salicylate] | potent TRPA1 agonists |  |  | influence on ammonium-induced conductivity / transport across rumen epithelium (profile in words) [5]: inhibiting profile; transepithelial current after addition (maximum reduction) ([5]; reduced from −25.44±1.8, n=4, not (yet) significant): −21.06±2.97 μA·cm^−2; Effect on TRPA1 ([1]; listed as Methyl salicilate): Agonist
33 | COc1ccc(CCN(C)CCCC(C#N)(c2ccc(OC)c(OC)c2)C(C)C)cc1OC (stereo not drawn) [verapamil] |  |  |  | change of transepithelial current ([5]; 1 mmol·l^−1 added to solution containing ammonium): the current drops
34 | evodiamine |  | Agonist |  | 
